Reference: patent US20220323416A1, “Ferroportin-Inhibitors For The Use In The Prevention And Treatment Of Kidney Injuries” (Vifor (International) AG, priority 2019, published 2022)

How the values were obtained:
[1] = test system: C57BL/6 mice; assay: Reduction of serum iron by Fpn127 in C57BL/6 mice; assay type: in vivo, mouse; conditions: naïve C57BL/6 mice; for Serum iron: 4 h post dosing; for Serum iron (hypoferremia sustained): 8 h post dosing
Procedure: FIG. 2: Serum iron levels in naïve C57BL/6 mice treated with Fpn127 at 120 mg/kg or 300 mg/kg for 4 h or 8 h. Vehicle was 0.5% methylcellulose in water
To determine the dose of Fpn127 that causes sustained serum iron reduction, C57BL/6 mice received either 120 mg/kg or 300 mg/kg of Fpn127 po for 4 h or 8 h.

[2] = test system: guinea pigs; conditions: cited from earlier work
[3] = i.v. dosing after RBC transfusion

Compound	Serum iron ([1]; 120 mg/kg po)	Serum iron (hypoferremia sustained) ([1]; 120 mg/kg po)	Serum iron ([1]; 300 mg/kg po)	Serum iron (hypoferremia sustained) ([1]; 300 mg/kg po)	Hb levels following exchange transfusion [2, 3]	NTBI levels following exchange transfusion [2, 3]	Total iron in kidneys following transfusion [2, 3]	Occurrence of changes in plasma creatinine >0.3 mg/dL (indicator of early AKI) ([2]; i.v. dosing, transfused animals)	Cellular injury ([2]; i.v. immediately after acute red blood cell transfusions)
O=C(NCc1ncccc1F)c1coc(CCNCCc2nc3ccccc3[nH]2)n1 [Fpn127]	reduced significantly	only the dose of 300 mg/kg sustained the hypoferremia	reduced significantly	sustained the hypoferremia					
O=C(NCc1ncccc1F)c1csc(CCNCc2nc3ccccc3[nH]2)n1 [VIT-2653]					significantly improved	significantly improved	can be reduced	significantly reduced	attenuation of cellular injury
